Measurements reported in US20020019344A1, “Methods of preventing allograft rejection” (priority 2000, published 2002).
Read-outs that look alike come from different tables or passages of the source.

Columns and labels:
[1] = test system: IL-2 secretion in human T lymphocytes; experiment: Inhibition of PHA/PMA-induced IL-2 secretion in human T lymphocytes; type: cell-based; conditions: for activation of IL-2 production: 5 micromolar, preincubation 12 hours prior to activator
Method: The following test can be used to detect whether an insulin sensitizing agent is also able to inhibit IL-2 production. Isolated human T lymphocytes or a mammalian lymphocyte cell line which expresses PPARgamma is stimulated with one or a combination of PHA/PMA, TNF-alpha, interferon-gamma or some other factor that activates induction of IL-2 gene expression. Production of IL-2 is determined by measuring the concentration of IL-2 in the supernatant from cells using Endogen kits (Wolbum), as described by Yang et al.

[2] = test system: NF-kappaB; experiment: Inhibition of NF-kappaB activation, electrophoretic mobility shift assay; type: cell-based, human; conditions: 5 micromolar; preincubation 2 hours prior to activator
Method: The following test can be used to generically identify compounds of use in this invention based upon their ability to act as an agonist of PPAR. […] The rexinoid, LG100754 is a selective RXR/PPARgamma agonists. These compounds are tested for the ability to inhibit activity of NF-kappaB. Isolated human T lymphocytes or a mammalian cell line such as a Jurkat T cell line which expresses PPARgamma is stimulated with a concentration of one or a combination of: phytohemagglutinin/phorbol 12-myristate 13-acetate (PHA/PMA), TNF-alpha, interferon-gamma or some other factor that activates NF-kappaB. Activation of NF-kappaB is determined by electrophoretic mobility shift assay similar to that described by Rossi et al.

[3] = test system: NFAT; experiment: Inhibition of NFAT activation, electrophoretic mobility shift assay; type: cell-based, human; conditions: 5 micromolar; preincubation 2 hours prior to activator
Method: Isolated human T lymphocytes or a mammalian cell line such as a Jurkat T cell line which expresses PPARgamma is stimulated with a concentration of one or a combination of PHA/PMA, TNF-alpha, interferon-gamma or some other factor that activates NFAT. Transcriptional activation of NFAT is determined by electrophoretic mobility shift assay similar to that described by Yang et al.

[4] = test system: monocyte/macrophages; conditions: Thieringer et al.; cited from earlier work
[5] = 10 uM, preincubated with drug for 24 hr, +PHA/PMA

CN(CCOc1ccc(CC2SC(=O)NC2=O)cc1)c1ccccn1 (centres unmarked) [rosiglitazone]
IL-2 released ([1]; 0.1 uM, preincubated with drug for 12 hr, +PHA/PMA): 481 ± 11 c.p.m.
IL-2 released ([1]; 1.0 uM, preincubated with drug for 12 hr, +PHA/PMA): 406 ± 12 c.p.m.
IL-2 released ([1]; 10 uM, preincubated with drug for 12 hr, +PHA/PMA): 323 ± 26 c.p.m.
IL-2 released [1, 5]: 112 ± 7 pg/ml supernatant
inhibition at 0.1 µM ([1]; Homo sapiens, T-lymphocyte, 0.1 uM, preincubated with drug for 12 hr, +PHA/PMA, read-out: Percent Inhibition): 12%
inhibition at 1 µM ([1]; Homo sapiens, T-lymphocyte, 1.0 uM, preincubated with drug for 12 hr, +PHA/PMA, read-out: Percent Inhibition): 25%
inhibition at 10 µM ([1]; Homo sapiens, T-lymphocyte, 10 uM, preincubated with drug for 12 hr, +PHA/PMA, read-out: Percent Inhibition): 41%
inhibition at 10 µM ([1]; Homo sapiens, T-lymphocyte, 10 uM, preincubated with drug for 24 hr, +PHA/PMA, read-out: Percent Inhibition): 75%

CCCCC[C@H](O)/C=C/[C@H]1C(=O)C=C[C@@H]1C/C=C\CCCC(=O)O [prostaglandin J2]
activation of IL-2 production [1]: inhibits the activation of IL-2 production
activation of NF-kappaB [2]: inhibits the activation of NF-kappaB
activation of NFAT [3]: inhibits the activation of NFAT

Cc1oc(-c2ccccc2)nc1C(O)COc1ccc(CC2SC(=O)NC2=O)cc1 (centres unmarked) [AD-5075]
effect on TNF-alpha and lipopolysaccharide production [4]: no effect

CN(CCOc1ccc(CC2SC(=O)NC2=O)cc1)C(=O)CCCCC1CCSS1 (centres unmarked) [BP1-003]
IL-2 released [1, 5]: 37 ± 7 pg/ml supernatant
Percent Inhibition [1, 5]: 92%

CCCOc1cc2c(cc1\C(C)=C/C=C/C(C)=C/C(=O)O)C(C)(C)CCC2(C)C [LG100754]
activation of IL-2 production [1]: inhibits the activation of IL-2 production
activation of NF-kappaB [2]: inhibits the activation of NF-kappaB
activation of NFAT [3]: inhibits the activation of NFAT
